The text below walks through data of patent US20260317324A1, “BIFUNCTIONAL COMPOUNDS FOR DEGRADING BRAF VIA UBIQUITIN PROTEOSOME PATHWAY” (Nurix Therapeutics, Inc., priority 2023, published 2026).

Holding throughout (format): cell-based
One experiment has as its target T1, BRAF V600E (Homo sapiens, UniProt P15056, V600E).
T1 construct: endogenous C-terminal HiBiT fusion tag on BRAF V600E allele; endogenous in cells; host or cells: A375 clone 1F10 (CRISPR-Cas9 knock-in of the HiBiT tag; parental A375 from ATCC)
In words: BRAF HiBiT degradation assay, C-terminal HiBiT-tagged BRAF V600E A375 cells (clone 1F10), Nano-Glo HiBiT Lytic assay. The note with it: for Dmax: A-375. Summed up: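 A375 cells (clone 1F10, endogenous C-terminal HiBiT on BRAF V600E) were seeded at 10,000 cells/well, grown 24 h, then dosed in duplicate with an 11-point series from 1 μM to 0.01 nM (0.2% DMSO). Nano-Glo HiBiT lytic luminescence was normalised to DMSO and wildtype-A375 background; DC50 was read at 50% protein remaining, alongside observed Dmax.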

In another experiment the target is T2, BRAF G466V (Homo sapiens, UniProt P15056, G466V).
T2 construct: Horizon Discovery (HCT-116 BRAF−/− cells); host or cells: HCT-116 BRAF−/− cells, clone 8, lentiviral transduction
In words: BRAF HiBiT degradation assay, C-terminal HiBiT-tagged BRAF G466V overexpressed in HCT-116 BRAF−/− cells (clone 8), Nano-Glo HiBiT Lytic assay. Summed up:
(§1)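 HCT-116 BRAF−/− clones stably overexpressing C-terminal HiBiT-tagged mutant BRAF were seeded 24 h before treatment with an 11-point half-log series from 1 μM to 0.01 nM (0.2% DMSO final). Remaining protein was read by HiBiT lytic luminescence, with DMSO and wildtype-cell controls. DC50 was taken as the fitted concentration at 50% remaining protein; observed Dmax is reported relative to DMSO.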

A further experiment has as its target T3, BRAF D594G (Homo sapiens, UniProt P15056, D594G).
T3 construct: Horizon Discovery (HCT-116 BRAF−/− cells); host or cells: HCT-116 BRAF−/− cells, clone 63, lentiviral transduction
In words: BRAF HiBiT degradation assay, C-terminal HiBiT-tagged BRAF D594G overexpressed in HCT-116 BRAF−/− cells (clone 63), Nano-Glo HiBiT Lytic assay. Summed up: as §1
On the technique in general: HiBiT is a short tag that completes a luciferase, so light tracks the accessible tagged protein.

The target in another experiment is T4, BRAF G469A (Homo sapiens, UniProt P15056, G469A).
T4 construct: Horizon Discovery (HCT-116 BRAF−/− cells); host or cells: HCT-116 BRAF−/− cells, clone 34, lentiviral transduction
In words: BRAF HiBiT degradation assay, C-terminal HiBiT-tagged BRAF G469A overexpressed in HCT-116 BRAF−/− cells (clone 34), Nano-Glo HiBiT Lytic assay. Summed up:
as §1

[1] abbreviates: A375 (BRAF V600E, Class 1), DC50 at 50% degradation.
Where [2] appears, read: A375 (BRAF V600E, Class 1), observed Dmax, % protein degraded relative to DMSO control.
[3] abbreviates: BRAF G466V (Class 3), HCT-116 BRAF−/− cells, DC50 at 50% degradation.
Where [4] appears, read: BRAF G466V (Class 3), HCT-116 BRAF−/− cells, observed Dmax relative to DMSO control.
The mark [5] stands for this setting: BRAF D594G (Class 3), HCT-116 BRAF−/− cells, DC50 at 50% degradation.
The mark [6] stands for this setting: BRAF D594G (Class 3), HCT-116 BRAF−/− cells, observed Dmax relative to DMSO control.
Setting [7] is: BRAF G469A (Class 2), HCT-116 BRAF−/− cells, DC50 at 50% degradation.
Where [8] appears, read: BRAF G469A (Class 2), HCT-116 BRAF−/− cells, observed Dmax relative to DMSO control.
[9] abbreviates: A375 (BRAF V600E), DC50 at 50%: fitted conc. at Y=50.
Setting [10] is: A375 (BRAF V600E), percentage protein degraded at maximal compound effect relative to DMSO.
[11] abbreviates: BRAF G466V, DC50 at 50%: fitted conc. at Y=50.
Setting [12] is: HCT-116, BRAF G466V, percentage protein degraded at maximal compound effect relative to DMSO.
Setting [13] is: BRAF D594G, DC50 at 50%: fitted conc. at Y=50.
Where [14] appears, read: HCT-116, BRAF D594G, percentage protein degraded at maximal compound effect relative to DMSO.
Where [15] appears, read: Class 2, BRAF G469A, DC50 at 50%: fitted conc. at Y=50.
Setting [16] is: HCT-116, Class 2, BRAF G469A, percentage protein degraded at maximal compound effect relative to DMSO.

Broadly, the DC50 is the concentration giving 50% degradation. In general, Dmax refers to the greatest extent of degradation seen. Read a high Dmax as deep degradation.

T3 sequence (P15056 whole entry D594G): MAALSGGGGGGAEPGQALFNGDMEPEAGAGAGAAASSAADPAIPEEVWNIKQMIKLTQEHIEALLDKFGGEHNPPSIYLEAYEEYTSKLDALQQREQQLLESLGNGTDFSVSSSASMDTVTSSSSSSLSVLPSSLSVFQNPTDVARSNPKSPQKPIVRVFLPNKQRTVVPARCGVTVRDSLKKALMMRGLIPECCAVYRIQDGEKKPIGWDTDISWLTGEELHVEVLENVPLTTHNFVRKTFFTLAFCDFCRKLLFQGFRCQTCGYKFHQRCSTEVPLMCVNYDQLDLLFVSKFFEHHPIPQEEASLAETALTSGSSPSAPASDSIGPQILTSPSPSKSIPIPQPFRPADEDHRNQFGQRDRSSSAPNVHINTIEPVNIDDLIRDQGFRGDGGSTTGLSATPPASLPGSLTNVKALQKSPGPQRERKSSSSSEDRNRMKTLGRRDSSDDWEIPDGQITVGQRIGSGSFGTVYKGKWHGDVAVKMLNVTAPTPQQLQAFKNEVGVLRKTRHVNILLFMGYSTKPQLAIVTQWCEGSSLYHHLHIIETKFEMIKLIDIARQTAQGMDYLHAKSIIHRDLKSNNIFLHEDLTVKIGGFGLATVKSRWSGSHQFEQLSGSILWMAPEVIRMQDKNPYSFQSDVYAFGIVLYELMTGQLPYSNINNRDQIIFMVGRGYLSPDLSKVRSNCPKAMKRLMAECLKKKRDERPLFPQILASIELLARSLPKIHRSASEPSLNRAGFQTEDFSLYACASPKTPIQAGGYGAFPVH
T2 sequence (P15056 whole entry G466V): as the sequence (P15056 whole entry D594G) above, with G466V, G594D counted along it
T1 sequence (P15056 whole entry V600E, the tested form may be a part): as the sequence (P15056 whole entry D594G) above, with G594D, V600E counted along it
T4 sequence (P15056 whole entry G469A): as the sequence (P15056 whole entry D594G) above, with G469A, G594D counted along it

As to `CCCS(=O)(=O)Nc1cccc(-c2nc(C3CCC4(CC3)CCN(C(=O)C3CCN(c5cccc6c5n(C)c(=O)n6C5CCC(=O)NC5=O)CC3)CC4)sc2-c2ccnc(N)n2)c1F` (racemic) [Compound 251, Rac-N-{3-[5-(2-aminopyrimidin-4-yl)-2-[3-(1-{1-[(3R)-2,6-dioxopiperidin-3-yl]-3-methyl-2-oxo-2,3-dihydro-1H-1,3-benzodiazol-4-yl}piperidine-4-carbonyl)-3-azaspiro[5.5]undecan-9-yl]-1,3-thiazol-4-yl]-2-fluorophenyl}propane-1-sulfonamide], the DC50 at BRAF V600E (setting [1]) is less than 10 nM; at BRAF G466V (setting [3]), less than 10 nM; on BRAF D594G (setting [5]), less than 10 nM; on BRAF G469A (setting [7]), greater than 500 nM. Besides, the Dmax at BRAF V600E (setting [2]) was greater than 70%; on BRAF G466V (setting [4]), 30 to 70%; at BRAF D594G (setting [6]) it was 30 to 70%; at BRAF G469A (setting [8]), 30 to 70%.

Consider `O=C1CCC(c2ccc(N3CCC(CN4CCN(c5ccc(-n6cc(-c7cc(Cl)cc(NS(=O)(=O)N8CCCC8)c7F)c(-c7ccncc7)n6)cn5)CC4)CC3)nc2)C(=O)N1` (racemic) [Compound 352, Rac-N-{5-chloro-3-[1-(6-{4-[(1-{5-[(3R)-2,6-dioxopiperidin-3-yl]pyridin-2-yl}piperidin-4-yl)methyl]piperazin-1-yl}pyridin-3-yl)-3-(pyridin-4-yl)-1H-pyrazol-4-yl]-2-fluorophenyl}pyrrolidine-1-sulfonamide], for which the DC50 at BRAF V600E (setting [1]), on BRAF G466V (setting [3]), on BRAF D594G (setting [5]) and on BRAF G469A (setting [7]) was less than 10 nM throughout. Also, the greatest degradation seen (Dmax) is greater than 70% at BRAF V600E (setting [2]), greater than 70% at BRAF G466V (setting [4]), 30 to 70% on BRAF D594G (setting [6]) and greater than 70% on BRAF G469A (setting [8]).

Take `C[C@@H]1CN(c2ccc(-n3cc(-c4cc(Cl)cc(NS(=O)(=O)N5CC[C@@H](F)C5)c4F)c(-c4ccncc4)n3)cc2)CCN1CC1CCN(c2ccc(N3CCC(=O)NC3=O)cc2)CC1` [Compound 315, (3R)—N-[5-chloro-3-(1-{4-[(3R)-4-({1-[4-(2,4-dioxo-1,3-diazinan-1-yl)phenyl]piperidin-4-yl}methyl)-3-methylpiperazin-1-yl]phenyl}-3-(pyridin-4-yl)-1H-pyrazol-4-yl)-2-fluorophenyl]-3-fluoropyrrolidine-1-sulfonamide]: the half-maximal degradation concentration (DC50) was less than 10 nM on BRAF V600E (setting [1]), less than 10 nM at BRAF G466V (setting [3]), less than 10 nM at BRAF D594G (setting [5]) and 10 to 50 nM at BRAF G469A (setting [7]). Further, the Dmax on BRAF V600E (setting [2]) was greater than 70%; at BRAF G466V (setting [4]), greater than 70%; on BRAF D594G (setting [6]), 30 to 70%; at BRAF G469A (setting [8]), 30 to 70%.

`CCCS(=O)(=O)Nc1cc(Cl)cc(-c2cn(-c3ccc(N4CCN(CC5CCN(c6ccc(N7CCC(=O)NC7=O)cc6)CC5)[C@@H](C)C4)cc3)nc2-c2ccncc2)c1F` [Compound 280, N-[5-chloro-3-(1-{4-[(3S)-4-({1-[4-(2,4-dioxo-1,3-diazinan-1-yl)phenyl]piperidin-4-yl}methyl)-3-methylpiperazin-1-yl]phenyl}-3-(pyridin-4-yl)-1H-pyrazol-4-yl)-2-fluorophenyl]propane-1-sulfonamide]: the DC50 was 10 to 50 nM at BRAF V600E (setting [1]), greater than 500 nM on BRAF G466V (setting [3]), greater than 500 nM at BRAF D594G (setting [5]) and greater than 500 nM at BRAF G469A (setting [7]). The Dmax on BRAF V600E (setting [2]) is greater than 70%; at BRAF G466V (setting [4]), 30 to 70%; on BRAF D594G (setting [6]), less than 30%; at BRAF G469A (setting [8]) it was less than 30%.

As to `CCCS(=O)(=O)Nc1cccc(-c2nc(C3CCN(C(=O)C4CCN(C(=O)CC5CCN(c6ccc(C7CCC(=O)NC7=O)cn6)CC5)CC4)CC3)sc2-c2ccnc(N)n2)c1F` (racemic) [Compound 203, Rac-N-{3-[5-(2-aminopyrimidin-4-yl)-2-(1-{1-[2-(1-{5-[(3R)-2,6-dioxopiperidin-3-yl]pyridin-2-yl}piperidin-4-yl)acetyl]piperidine-4-carbonyl}piperidin-4-yl)-1,3-thiazol-4-yl]-2-fluorophenyl}propane-1-sulfonamide], the DC50 at BRAF V600E (setting [9]) is less than 10 nM; on BRAF G466V (setting [11]), less than 10 nM; on BRAF D594G (setting [13]) it was less than 10 nM; on BRAF G469A (setting [15]) it was greater than 500 nM. The greatest degradation seen (Dmax) was greater than 70% at BRAF V600E (setting [10]), greater than 70% at BRAF G466V (setting [12]), 30 to 70% at BRAF D594G (setting [14]) and 30 to 70% at BRAF G469A (setting [16]).

In the case of `CCCS(=O)(=O)Nc1cccc(-c2nc(C(C)(C)C)sc2-c2ccnc(NC3CC4(CCN(CC5CCN(c6ccc7c(=O)n(C8CCC(=O)NC8=O)ccc7c6)CC5)CC4)C3)n2)c1F` (racemic) [Compound 129, Rac-N-(3-{2-tert-butyl-5-[2-({7-[(1-{2-[(3R)-2,6-dioxopiperidin-3-yl]-1-oxo-1,2-dihydroisoquinolin-6-yl}piperidin-4-yl)methyl]-7-azaspiro[3.5]nonan-2-yl}amino)pyrimidin-4-yl]-1,3-thiazol-4-yl}-2-fluorophenyl)propane-1-sulfonamide], the 50% degradation concentration (DC50) is 50 to 500 nM on BRAF V600E (setting [9]), greater than 500 nM on BRAF G466V (setting [11]), greater than 500 nM on BRAF D594G (setting [13]) and greater than 500 nM at BRAF G469A (setting [15]). The maximal degradation (Dmax) on BRAF V600E (setting [10]) was 30 to 70%; on BRAF G466V (setting [12]) it was less than 30%; at BRAF D594G (setting [14]), less than 30%; at BRAF G469A (setting [16]) it was less than 30%.

For `O=C1CC[C@H](c2ccc(N3CCC(CN4CCN(c5ccc(-n6cc(-c7cc(Cl)cc(NS(=O)(=O)N8CC(F)C8)c7F)c(-c7ccncc7)n6)cc5)CC4)CC3)cc2)C(=O)N1` [Compound 333, N-{5-chloro-3-[1-(4-{4-[(1-{4-[(3R)-2,6-dioxopiperidin-3-yl]phenyl}piperidin-4-yl)methyl]piperazin-1-yl}phenyl)-3-(pyridin-4-yl)-1H-pyrazol-4-yl]-2-fluorophenyl}-3-fluoroazetidine-1-sulfonamide], the DC50 at BRAF V600E (setting [1]), at BRAF G466V (setting [3]), at BRAF D594G (setting [5]) and on BRAF G469A (setting [7]) was less than 10 nM each time. Also, the Dmax at BRAF V600E (setting [2]) was greater than 70%; at BRAF G466V (setting [4]), greater than 70%; on BRAF D594G (setting [6]), 30 to 70%; at BRAF G469A (setting [8]), 30 to 70%.

As for `CCCS(=O)(=O)Nc1cc(Cl)cc(-c2cn(-c3ccc(N4CCN(CC5CCN(c6ccc([C@H]7CCC(=O)NC7=O)cc6)CC5)[C@H](C)C4)cc3)nc2-c2ccncc2)c1F` [Compound 275, N-[5-chloro-3-(1-{4-[(3R)-4-[(1-{4-[(3R)-2,6-dioxopiperidin-3-yl]phenyl}piperidin-4-yl)methyl]-3-methylpiperazin-1-yl]phenyl}-3-(pyridin-4-yl)-1H-pyrazol-4-yl)-2-fluorophenyl]propane-1-sulfonamide], the DC50 on BRAF V600E (setting [1]) was less than 10 nM; at BRAF G466V (setting [3]), less than 10 nM; on BRAF D594G (setting [5]), less than 10 nM; at BRAF G469A (setting [7]), 10 to 50 nM. Besides, the greatest degradation seen (Dmax) is greater than 70% at BRAF V600E (setting [2]), greater than 70% at BRAF G466V (setting [4]), 30 to 70% on BRAF D594G (setting [6]) and 30 to 70% on BRAF G469A (setting [8]).

In the case of `CCCS(=O)(=O)Nc1cccc(-c2nc(C3CCC4(CC3)CCN(CC3CCN(c5ccc6c(c5)CN(C5CCC(=O)NC5=O)C6=O)CC3)CC4)sc2-c2ccnc(N)n2)c1F` (racemic) [Compound 258, Rac-N-{3-[5-(2-aminopyrimidin-4-yl)-2-{3-[(1-{2-[(3R)-2,6-dioxopiperidin-3-yl]-1-oxo-2,3-dihydro-1H-isoindol-5-yl}piperidin-4-yl)methyl]-3-azaspiro[5.5]undecan-9-yl}-1,3-thiazol-4-yl]-2-fluorophenyl}propane-1-sulfonamide], the DC50 at BRAF V600E (setting [1]) is less than 10 nM; on BRAF G466V (setting [3]) it was greater than 500 nM; on BRAF D594G (setting [5]) it was greater than 500 nM; on BRAF G469A (setting [7]), greater than 500 nM. In addition, the Dmax was 30 to 70% at BRAF V600E (setting [2]), 30 to 70% at BRAF G466V (setting [4]), less than 30% at BRAF D594G (setting [6]) and less than 30% at BRAF G469A (setting [8]).
